Test [1] concerns the target T1, human TAS2R44 bitter taste receptor (Homo sapiens, UniProt P59538, L162M).
T1 construct: The TAS2R44 construct contains RSS tag, TAS2R44, and the HSV tag which are fused in frame; expressed in transfected cells; host or cells: HEK293T/Galpha16-gustducin44 cells, stably transfected with pcDNA3.1Zeo-TAS2R44
T1 sequence (P59538 with tags, fused parts or gaps L162M): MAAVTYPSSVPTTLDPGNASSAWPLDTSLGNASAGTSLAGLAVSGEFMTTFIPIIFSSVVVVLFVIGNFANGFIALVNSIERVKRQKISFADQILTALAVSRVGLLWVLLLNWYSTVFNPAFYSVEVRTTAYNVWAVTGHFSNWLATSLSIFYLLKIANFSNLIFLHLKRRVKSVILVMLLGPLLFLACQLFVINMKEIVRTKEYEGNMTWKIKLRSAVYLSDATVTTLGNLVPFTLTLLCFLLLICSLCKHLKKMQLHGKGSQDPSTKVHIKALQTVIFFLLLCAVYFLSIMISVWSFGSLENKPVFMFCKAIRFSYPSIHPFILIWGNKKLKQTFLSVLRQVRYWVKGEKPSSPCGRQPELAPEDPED
Put plainly: TAS2R44 bitter taste receptor assay for IC50 determination (Fluo-4 calcium assay). It counts as cell-based. As for the experimental part:
A receptor screen with concentration-response analysis was performed and from results inhibitory concentration (IC) IC50 values can be calculated by nonlinear regression using the function f(x)=(a−d)/(1+(x/C)^nh)+d; with a=minimum signal, d=maximum signal, nh=hill coefficient, C=IC50. and x=concentration of antagonist.
IC50 is the molar concentration of an antagonist which produces 50% of the maximum possible inhibitory response for that antagonist.
The full length gene of human TAS2R44 was amplified by polymerase chain reaction (PCR) using gene-specific primers that span the entire coding region as described in WO 2004/029087.
The TAS2R44 cDNA was subcloned into an expression cassette based on either of the following plasmids/expression vectors: pcDNA3.1Zeo (Invitrogen). These vectors contain within their multiple cloning sites the nucleotide sequence coding for the first 45 amino acids of the rat somatostatin receptor subtype 3 (RSS tag) to facilitate cell surface targeting of the transgene (SEQ ID #4) and the nucleotide sequence coding for the herpes simplex virus (HSV) glycoprotein D epitope (HSV epitope in aminoterminal to carboxyterminal direction, HSV tag). (SEQ ID #3) for facilitating immunocytochemical detection.
The TAS2R44 construct contains RSS tag, TAS2R44, and the HSV tag which are fused in frame to allow translation into the receptor protein and the resulting receptor cDNA. This transfected expression vector is called pcDNA3.1Zeo-TAS2R44 (SEQ ID #1) and allows for expression of the TAS2R44 protein (SEQ ID #2).
A cell line that stably expresses the human bitter taste receptor (TAS2R44) was generated by transfecting pcDNA3.1Zeo-TAS2R44 into HEK293T/Gα16-gustducin 44 cells (both formed as described in under 1) above. The host cell line HEK-293T is commercially available from the American […] (catalog #CRL-1573).
Fluo-4 AM (Invitrogen) is a fluorescent indicator of intracellular calcium dynamics (change in concentration) and allows monitoring changes in the calcium concentration, particularly an increase in response to receptor activation occurring after agonist exposure.
At day 0, the HEK293T cell line stably expressing Gα16-gustducin44 and TAS2R44 formed as described under 2) was seeded in antibiotic-free growth medium (standard DMEM with 10% (v/v) heat-inactivated fetal bovine serum, 2 mM L-glutamine […]) into black wall/clear bottom 96-well plates, coated with poly(ethylenimine) (0.005% v/v) at a concentration of 15,000 cells per well and incubated for 48 hours in humidified atmosphere (37° C., 5% CO2).
At the time of the assay, the growth medium was discarded and the cells were further incubated in a humidified atmosphere (37° C., 5% CO2) for 1 hour with 50 μl of loading buffer consisting of 1.5 μM Fluo-4 AM and 2.5 μM probenicid (Sigma-Aldrich) in DMEM.
Afterwards, the 96-well plate was washed 5 times with 200 μl of assay buffer (130 mM NaCl, 5 mM KCl, 10 mM HEPES, 2 mM CaCl2, and 5 mM dextrose, pH 7.4) per well, using an automated plate washer (BioTek). The plate was further incubated for 30 minutes at room temperature in the dark to allow for complete de-esterification of the Fluo-4. Afterwards the plate was washed 5 times with 200 μl of assay buffer per well, and reconstituted with 180 μl of assay buffer per well.
For assay reading, the plate was placed in a Fluorometric Imaging Plate Reader (FLIPR) (FLIPR-TETRA™, Molecular Devices), and receptor activation was initiated by addition of 20 μl of a tenfold concentrated agonist stock solution (to give the desired agonist end concentration when added to the 180 microliter assay buffer volume), which was prepared in assay buffer.
Fluorescence was continuously monitored for 20 seconds to give a signal baseline (averaged to give F0) prior to agonist addition and for 120 seconds after agonist addition. […]

Test [2] deals with panel of bitter sensitive individuals. Put plainly: Sensory evaluation, forced choice test in water with sucralose. It counts as in vivo. The following applies: 13 ppm in water with sucralose 1 mM, 3 mM, 7 mM. As for the experimental part:
The bitter blocker (13 ppm) was tested in water with sucralose in concentrations of 1 mM, 3 mM, and 7 mM by a panel of bitter sensitive individuals (15) in two replications per each concentration. The samples were compared to negative controls without bitter blocker and panelists were instructed to choose the less bitter sample in a forced choice test.

The mark [3] stands for this setting: agonist not stated, read-out: IC50 when tested with the TAS2R44 bitter taste receptor.

Results on 7 compounds are retold here after patent publication US8409649B2, “Off-note blocking sensory organic compounds” (Givaudan S.A., priority 2007, dated 2013).

Structures are written as SMILES. Read-outs that look alike come from different tables or passages of the source.

For orientation: IC50 means the concentration needed to halve the response being measured.

For `CC1(C(=O)O)CC1CC1CC2CC2(C)C1(C)C` (stereo not shown) [1-methyl-2-((1,2,2-trimethylbicyclo[3.1.0]hexan-3-yl)methyl)cyclopropanecarboxylic acid], the IC50 in test [1] (setting [3]) was 0.1 to 20 µM.

On to `CC1CCCC(C)(C)C1CCC(=O)O` (stereo not shown) [3-(2,2,6-trimethylcyclohexyl)propanoic acid], for which, in test [1] (setting [3]), the IC50 lay within 0.1 to 20 µM.

Turning to `CC1=CCC(C/C=C/C(=O)O)C1(C)C` (stereo not shown) [4-(2,2,3-trimethylcyclopent-3-enyl)but-2-enoic acid], in test [2], the “effect on bitterness vs negative control without bitter blocker” value was “significantly reduce bitterness”. Besides, the “panelists that chose the sample with bitter blocker as less bitter” value in test [2] (forced choice, 15 individuals, two replications) is 22/30. Besides, the IC50 in test [1] (setting [3]) is 0.1 to 20 µM; in test [1] (sucralose (50 mM) as agonist, same range as example 4), “within the same range”.

For the compound `CC1CCCC(C)(C)C1CCCC(=O)O` (stereo not shown) [4-(2,2,6-trimethylcyclohexyl)butanoic acid], the IC50 in test [1] (setting [3]) was 0.1 to 20 µM.

For `CC1=CCCC(C)(C)C1CCC(C)C(=O)O` (stereo not shown) [2-methyl-4-(2,6,6-trimethylcyclohex-2-enyl)butanoic acid], in test [1] (setting [3]), the IC50 lay within 0.1 to 20 µM.

Consider `CC1CCC(CC(=O)O)CC1C` (stereo not shown) [2-(3,4-dimethylcyclohexyl)acetic acid], for which the IC50 in test [1] (setting [3]) fell in the range of 0.1 to 20 µM.

On to `CC1CCC(CCCC(=O)O)C1(C)C` (stereo not shown) [4-(2,2,3-trimethylcyclopentyl)butanoic acid], for which, in test [1] (setting [3]), the half-maximal inhibitory concentration (IC50) lay in the range of 0.1 to 20 µM.
